Assay [1] concerns IL-2 release from stimulated Jurkat cells. Description: Human IL-2 Release Phenotypic Assay (Assay 3). The class given is cell-based. The conditions noted are these: Homo sapiens, Jurkat, 48 h, Jurkat cells (clone E6-1), 200 ng/ml PMA + 300 ng/ml ionomycin, IL-2 in supernatant by ELISA. The procedure: Human IL-2 Release Phenotypic Assay (Assay 3)
This assay measured the inhibition by MALT1 inhibitors of the IL-2 release from stimulated Jurkat cells, a human immortalized T lymphocyte cell line. IL-2 production from Jurkat cells is regulated by activation of NFκB signalling, which is in turn regulated by MALT1 protease activity.
Jurkat cells (clone E6-1, ATCC) were cultured in RPMI1640 supplemented with 10% (v/v) FBS and 1% (v/v) penicillin/streptomycin (100× liquid stocks). Cells were seeded in 96-well white tissue culture-treated plates (Perkin Elmer) at 50 000 cells/well and incubated overnight at 37° C., 5% CO2. Test compounds in DMSO at half-log dilutions were added to the cells and incubated for 30 mins. Final DMSO concentration was 0.5%. Cells were then stimulated with 200 ng/ml PMA+300 ng/ml ionomycin and incubated for 48 hours. IL-2 present in the supernatant was then measured by ELISA according to the kit instructions (ELISA MAX Deluxe Set Human IL-2, BioLegend). % inhibition was calculated for each well, using 30 μM of the commercially available MALT1 inhibitor, MLT-748, for 100% inhibition controls and no compound for 0% inhibition controls. IC50 values were calculated using GraphPad Prism using 4-parameter non-linear regression curve fit.
A general note: In an ELISA, binding on a coated surface is turned into a signal by an enzyme label.

For assay [2], the target named is FL hMALT1 enzyme (Homo sapiens (Human), UniProt Q9UDY8). Briefly: MALT1 Protease Assay 2 (Assay 2), higher sensitivity, cleavage of fluorogenic tetrapeptide substrate. The class given is biochemical. The conditions noted are these: FL hMALT1 1-10 nM, Ac-LVSR-AMC 100 μM, 0.7 M sodium citrate, 30 min preincubation, 60 min read. The procedure, abridged: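 After 30 min room-temperature preincubation with compound (1% DMSO), enzyme (1-10 nM) cleaved 100 μM Ac-LVSR-AMC in pH 7.0 HEPES buffer containing 0.7 M sodium citrate, CHAPS and TCEP. Fluorescence (ex 360/em 460 nm) signal was taken as 60 min minus time 0. IC50 came from 4-parameter fits of % inhibition.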

Assay [3] has as its target MALT1-GS-Ub (6-His-hMALT-1 residues 339-715 fused to ubiquitin) (Homo sapiens (Human), UniProt Q9UDY8). Briefly: MALT1 Protease Assay 1 (Assay 1), cleavage of fluorogenic tetrapeptide substrate. The class given is biochemical. The conditions noted are these: MALT1-GS-Ub 300-600 nM, Ac-LVSR-AMC 100 μM, 30 min preincubation, 60 min read. The procedure, abridged: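 E. coli-expressed MALT1-GS-Ub (300–600 nM) preincubated 30 min at room temperature with compound (1% DMSO final), then Ac-LVSR-AMC (100 μM) added in 50 mM HEPES pH 7.0, 25 mM KCl, 0.1% CHAPS, 1 mM TCEP. Fluorescence (ex 360/em 460 nm) change over 60 min gave % inhibition versus no-enzyme and no-compound controls; IC50 from 4-parameter fit.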

A value given as a limit tells only on which side of the number the result lay.

MALT1-GS-Ub (6-His-hMALT-1 residues 339-715 fused to ubiquitin), sequence (Q9UDY8 other isoform, or with tags, fused parts or gaps): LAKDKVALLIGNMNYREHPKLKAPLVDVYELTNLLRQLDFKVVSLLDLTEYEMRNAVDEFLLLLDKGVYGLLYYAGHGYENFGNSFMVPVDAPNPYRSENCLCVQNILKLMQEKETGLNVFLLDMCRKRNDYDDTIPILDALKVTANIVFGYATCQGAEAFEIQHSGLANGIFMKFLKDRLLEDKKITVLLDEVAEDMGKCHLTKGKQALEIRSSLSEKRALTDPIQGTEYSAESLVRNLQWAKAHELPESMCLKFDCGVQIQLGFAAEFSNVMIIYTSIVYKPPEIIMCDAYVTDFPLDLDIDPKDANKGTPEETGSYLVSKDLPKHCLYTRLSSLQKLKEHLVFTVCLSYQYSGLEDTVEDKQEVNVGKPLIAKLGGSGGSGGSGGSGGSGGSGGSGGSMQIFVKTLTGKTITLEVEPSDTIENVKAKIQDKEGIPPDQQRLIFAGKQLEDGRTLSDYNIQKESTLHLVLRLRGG
FL hMALT1 enzyme, sequence (Q9UDY8 whole entry): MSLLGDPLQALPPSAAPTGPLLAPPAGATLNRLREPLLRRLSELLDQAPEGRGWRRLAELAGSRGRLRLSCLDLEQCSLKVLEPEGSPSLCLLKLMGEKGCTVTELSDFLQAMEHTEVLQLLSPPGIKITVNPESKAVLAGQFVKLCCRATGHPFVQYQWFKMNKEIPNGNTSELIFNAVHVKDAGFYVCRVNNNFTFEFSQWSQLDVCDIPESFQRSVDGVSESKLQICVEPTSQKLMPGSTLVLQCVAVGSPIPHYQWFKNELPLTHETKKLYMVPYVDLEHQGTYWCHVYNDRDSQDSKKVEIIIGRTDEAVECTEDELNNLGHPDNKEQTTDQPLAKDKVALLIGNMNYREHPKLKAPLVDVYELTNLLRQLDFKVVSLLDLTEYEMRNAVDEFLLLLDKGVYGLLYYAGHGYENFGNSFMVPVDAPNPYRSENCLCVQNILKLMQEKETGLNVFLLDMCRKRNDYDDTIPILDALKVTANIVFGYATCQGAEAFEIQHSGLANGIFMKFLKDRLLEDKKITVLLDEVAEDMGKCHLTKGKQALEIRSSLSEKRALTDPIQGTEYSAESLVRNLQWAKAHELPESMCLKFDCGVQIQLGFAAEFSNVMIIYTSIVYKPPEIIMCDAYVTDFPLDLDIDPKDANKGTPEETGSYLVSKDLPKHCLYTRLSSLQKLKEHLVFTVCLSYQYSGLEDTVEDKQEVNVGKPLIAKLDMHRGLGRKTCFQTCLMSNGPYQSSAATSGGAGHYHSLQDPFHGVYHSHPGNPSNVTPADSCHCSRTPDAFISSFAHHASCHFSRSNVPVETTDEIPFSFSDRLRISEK

Consider `CC[C@@H]1CN(C(=O)Nc2cnc(-n3nccn3)c(Cl)c2)c2cncc(Br)c2N1C` [Example 34, (R)-8-Bromo-N-(5-chloro-6-(2H-1,2,3-triazol-2-yl)pyridin-3-yl)-2-ethyl-1-methyl-2,3-dihydropyrido[3,4-b]pyrazine-4 (1H)-carboxamide], for which the figures for the IC50 in assay [1], in assay [2] and in assay [3] were 290 nM, 50 nM and 970 nM, respectively.

`CC(C)[C@@H]1CN(C(=O)Nc2cnc(-n3nccn3)c(Cl)c2)c2cncc(Br)c2N1C` [Example 35, (R)-8-Bromo-N-(5-chloro-6-(2H-1,2,3-triazol-2-yl)pyridin-3-yl)-2-isopropyl-1-methyl-2,3-dihydropyrido[3,4-b]pyrazine-4 (1H)-carboxamide]: the figures for the IC50 in assay [1], in assay [2] and in assay [3] were 170 nM, 60 nM and 730 nM, respectively.

With `Cc1ncc2c(c1Br)OCCN2C(=O)Nc1cnc(-n2nccn2)c(Cl)c1` [Example 41, 8-Bromo-N-(5-chloro-6-(2H-1,2,3-triazol-2-yl)pyridin-3-yl)-7-methyl-2,3-dihydro-4H-pyrido[4,3-b][1,4]oxazine-4-carboxamide], the results for the half-maximal inhibitory concentration (IC50) in assay [1], in assay [2] and in assay [3] were above 10000 nM, 1400 nM and 3900 nM, respectively.

The term IC50 denotes the point on the concentration scale where inhibition reaches its midpoint.

The values are drawn from patent publication US20250136577A1, “HETEROCYCLIC DERIVATIVES AS MALT1 INHIBITORS” (C4X Discovery Limited, priority 2022, published 2025).
